In ChEMBL document CHEMBL1275295, “Synthesis of some p-toluenesulfonyl-hydrazinothiazoles and hydrazino-bis-thiazoles and their anticancer activity” (Eur J Med Chem, 2010):
pIC50: −log10 of the molar value.

Legend:
[1] = tested on: DU-145; experiment: Inhibition of proliferation of human DU145 cells after 72 hrs by XTT assay; format: functional, cell-based; conditions: DU-145, 72 h
[2] = tested on: HepG2; experiment: Inhibition of proliferation of human HepG2 cells after 72 hrs by XTT assay; format: functional, cell-based; conditions: HepG2, 72 h
[3] = tested on: DU-145; experiment: Inhibition of proliferation of human DU145 cells at 38.5 uM after 72 hrs by XTT assay; format: functional; conditions: DU-145, 72 h
[4] = tested on: DU-145; experiment: Inhibition of proliferation of human DU145 cells at 44.2 uM after 72 hrs by XTT assay; format: functional; conditions: DU-145, 72 h
[5] = tested on: HepG2; experiment: Inhibition of proliferation of human HepG2 cells at 36.2 uM after 72 hrs by XTT assay; format: functional; conditions: HepG2, 72 h
[6] = tested on: HepG2; experiment: Inhibition of proliferation of human HepG2 cells at 35.2 uM after 72 hrs by XTT assay; format: functional; conditions: HepG2, 72 h
[7] = tested on: DU-145; experiment: Inhibition of proliferation of human DU145 cells at 35.2 uM after 72 hrs by XTT assay; format: functional; conditions: DU-145, 72 h
[8] = tested on: HepG2; experiment: Inhibition of proliferation of human HepG2 cells at 51 uM after 72 hrs by XTT assay; format: functional; conditions: HepG2, 72 h
[9] = tested on: DU-145; experiment: Inhibition of proliferation of human DU145 cells at 36.2 uM after 72 hrs by XTT assay; format: functional; conditions: DU-145, 72 h
[10] = tested on: DU-145; experiment: Inhibition of proliferation of human DU145 cells at 34.1 uM after 72 hrs by XTT assay; format: functional; conditions: DU-145, 72 h
[11] = tested on: HepG2; experiment: Inhibition of proliferation of human HepG2 cells at 34.1 uM after 72 hrs by XTT assay; format: functional; conditions: HepG2, 72 h
[12] = tested on: DU-145; experiment: Inhibition of proliferation of human DU145 cells at 102 uM after 72 hrs by XTT assay; format: functional; conditions: DU-145, 72 h
[13] = tested on: HepG2; experiment: Inhibition of proliferation of human HepG2 cells at 72.5 uM after 72 hrs by XTT assay; format: functional; conditions: HepG2, 72 h
[14] = tested on: HepG2; experiment: Inhibition of proliferation of human HepG2 cells at 44.2 uM after 72 hrs by XTT assay; format: functional; conditions: HepG2, 72 h

CC(=O)c1sc(NNS(=O)(=O)c2ccc(C)cc2)nc1C
pIC50 [1]: 5.01 | pIC50 [2]: 5.06 | inhibition at 38.5 µM [3]: 100%

Cc1ccc(S(=O)(=O)NNc2nc(C)cs2)cc1
pIC50 [1]: 5.16 | inhibition at 44.2 µM [4]: 100% | pIC50 [2]: > 5.25 | inhibition at 36.2 µM [5]: 100%

CCOC(=O)Cc1csc(N(C(C)=O)N(C(C)=O)S(=O)(=O)c2ccc(C)cc2)n1
pIC50 [1]: 4.33 | pIC50 [2]: 4.96

CCOC(=O)c1sc(N(C(C)=O)N(C(C)=O)S(=O)(=O)c2ccc(C)cc2)nc1C
pIC50 [1]: < 4.24 | pIC50 [2]: < 4.24

COc1cccc2c1C(=O)c1c(O)c3c(c(O)c1C2=O)C[C@@](O)(C(=O)CO)C[C@@H]3O[C@H]1C[C@H](N)[C@H](O)[C@H](C)O1 [DOXORUBICIN]
pIC50 [1]: > 5.53 | pIC50 [2]: > 5.53

CC(=O)N(c1nc(-c2ccccc2)cs1)N(C(C)=O)S(=O)(=O)c1ccc(C)cc1
pIC50 [1]: < 4.23 | pIC50 [2]: < 4.23

CC(=O)N(c1nc(CCl)cs1)N(C(C)=O)S(=O)(=O)c1ccc(C)cc1
pIC50 [1]: < 4.21 | pIC50 [2]: < 4.21

CCOC(=O)c1sc(NNS(=O)(=O)c2ccc(C)cc2)nc1C
pIC50 [1]: 5.33 | pIC50 [2]: > 5.35 | inhibition at 35.2 µM [6]: 100% | inhibition at 35.2 µM [7]: 100%

O=C(NNc1nc(CCl)cs1)c1csc(-c2ccccc2)n1
pIC50 [1]: 4.31 | pIC50 [2]: 4.95

Cc1ccc(S(=O)(=O)NNc2nc(-c3ccccc3)cs2)cc1
pIC50 [1]: 5.04 | inhibition at 51 µM [8]: 100% | pIC50 [2]: 5.04 | inhibition at 36.2 µM [9]: 100%

CC(=O)N(c1nc(C)cs1)N(C(C)=O)S(=O)(=O)c1ccc(C)cc1
pIC50 [1]: 5.12 | pIC50 [2]: 5.13 | inhibition at 34.1 µM [10]: 100% | inhibition at 34.1 µM [11]: 100%

CCOC(=O)Cc1csc(N(NC(=O)c2csc(-c3ccccc3)n2)C(C)=O)n1
pIC50 [1]: < 4.24 | pIC50 [2]: < 4.24

Cc1ccc(S(=O)(=O)NNC(N)=S)cc1
pIC50 [1]: 5.05 | inhibition at 102 µM [12]: 100% | inhibition at 72.5 µM [13]: 100% | pIC50 [2]: 5.05 | inhibition at 44.2 µM [14]: 100%

CC(=O)c1sc(N(C(C)=O)N(C(C)=O)S(=O)(=O)c2ccc(C)cc2)nc1C
pIC50 [1]: 4.27 | pIC50 [2]: 4.24
